Reference: ChEMBL document CHEMBL4311942, “Design of Trp-Rich Dodecapeptides with Broad-Spectrum Antimicrobial Potency and Membrane-Disruptive Mechanism” (J Med Chem, 2019)
Calls of active or inactive are those of the source. Where a SMILES comes first, the peptide text is derived from it.

Key:
[1] = test system: Escherichia coli; test: Antibacterial activity against Escherichia coli ATCC 25922 incubated for 2 hrs in presence of sodium phosphate buffer at pH 2 by broth microdilution method; assay type: functional; details: ATCC 25922, 2 h
[2] = test system: Escherichia coli; test: Induction of cell membrane disruption in Escherichia coli ATCC 25922 assessed as appearance of partial membrane corrugation at 1 times MIC after 60 mins by field emission scanning electron microscopy; assay type: organism-based
[3] = test system: Staphylococcus aureus; test: Antibacterial activity against Staphylococcus aureus ATCC 29213 in presence of NH4Cl by broth microdilution method; assay type: functional
[4] = test system: Escherichia coli; test: Antibacterial activity against Escherichia coli ATCC 25922 in presence of CaCl2 by broth microdilution method; assay type: functional
[5] = test system: Staphylococcus aureus; test: Antibacterial activity against Staphylococcus aureus ATCC 29213 incubated for 2 hrs in presence of sodium phosphate buffer at pH 12 by broth microdilution method; assay type: functional; details: ATCC 29213, 2 h
[6] = test system: Escherichia coli; test: Bactericidal activity against Escherichia coli ATCC 25922 at 1 times MIC after 120 mins by time kill assay; assay type: functional, organism-based
[7] = test system: Staphylococcus aureus; test: Antibacterial activity against Staphylococcus aureus ATCC 29213 in presence of CaCl2 by broth microdilution method; assay type: functional
[8] = test system: Escherichia coli; test: Antibacterial activity against ciprofloxacin-resistant Escherichia coli ATCC 25922 incubated for 18 to 24 hrs; assay type: functional
[9] = test system: Staphylococcus aureus; test: Antibacterial activity against Staphylococcus aureus ATCC 29213 in presence of MgCl2 by broth microdilution method; assay type: functional
[10] = test system: Escherichia coli; test: Antibacterial activity against Escherichia coli ATCC 25922 using preheated compound at 100 degreeC for 1 hr by broth microdilution method; assay type: functional; details: ATCC 25922, 1 h
[11] = test system: Staphylococcus aureus; test: Antibacterial activity against Staphylococcus aureus ATCC 29213 incubated for 18 to 24 hrs by broth microdilution method; assay type: functional
[12] = test system: Escherichia coli; test: Induction of outer membrane permeabilization in Escherichia coli UB1005 assessed as increase in NPN uptake at 4 uM by spectrofluorophotometric assay relative to control
[13] = test system: Lipopolysaccharide (LPS); test: Displacement of BODIPY-TR-cadaverine from Escherichia coli O111:B4 LPS by spectrofluorophotometric method
[14] = test system: Staphylococcus aureus; test: Induction of cell membrane disruption in Staphylococcus aureus ATCC 29213 assessed as apperance of rough membrane with discrete blebs at 1 times MIC after 60 mins by field emission scanning electron microscopy; assay type: organism-based
[15] = test system: Staphylococcus aureus; test: Antibacterial activity against Staphylococcus aureus ATCC 29213 in presence of 50% serum by broth microdilution method; assay type: functional
[16] = test system: Escherichia coli; test: Antibacterial activity against Escherichia coli ATCC 25922 in presence of NaCl by broth microdilution method; assay type: functional
[17] = test system: Escherichia coli; test: Antibacterial activity against Escherichia coli ATCC 25922 in presence of KCl by broth microdilution method; assay type: functional
[18] = test system: Escherichia coli; test: Bactericidal activity against Escherichia coli ATCC 25922 assessed as reduction in bacterial growth at 2 times MIC after 60 mins by time kill assay relative to control; assay type: functional
[19] = test system: Escherichia coli; test: Induction of cell membrane disruption in Escherichia coli ATCC 25922 assessed as appearance of cytoplasmic clear zones at 1 times MIC after 60 mins by transmission electron microscopy; assay type: organism-based
[20] = test system: Staphylococcus aureus; test: Bactericidal activity against Staphylococcus aureus ATCC 29213 at 4 times MIC after 30 mins by time kill assay; assay type: functional, organism-based
[21] = test system: Escherichia coli; test: Antibacterial activity against Escherichia coli ATCC 25922 incubated for 18 to 24 hrs by broth microdilution method; assay type: functional
[22] = test system: Escherichia coli; test: Induction of cell membrane disruption in Escherichia coli ATCC 25922 assessed as propidium iodide-positive cells at 2 times MIC after 30 mins by flow cytometric analysis (reference value: 0.8%)
[23] = test system: Staphylococcus aureus; test: Antibacterial activity against Staphylococcus aureus ATCC 29213 incubated for 18 to 24 hrs using FITC-labelled peptide by broth microdilution method; assay type: functional, organism-based
[24] = test system: Escherichia coli; test: Antibacterial activity against Escherichia coli ATCC 25922 incubated for 2 hrs in presence of sodium phosphate buffer at pH 10 by broth microdilution method; assay type: functional; details: ATCC 25922, 2 h
[25] = test system: Escherichia coli; test: Induction of cell membrane disruption in Escherichia coli ATCC 25922 assessed as appearance of membrane atrophy at 1 times MIC after 60 mins by field emission scanning electron microscopy; assay type: organism-based
[26] = test system: Erythrocyte; test: Haemolytic activity in human erythrocytes assessed as lowest concentration causing 5% hemolysis after 1 hr; assay type: ADME, cell-based
[27] = test system: Acinetobacter baumannii; test: Antibacterial activity against Acinetobacter baumannii AB1901 clinical isolate incubated for 18 to 24 hrs by broth microdilution method; assay type: functional
[28] = test system: Staphylococcus aureus; test: Antibacterial activity against Staphylococcus aureus ATCC 29213 using preheated compound at 100 degreeC for 1 hr by broth microdilution method; assay type: functional; details: ATCC 29213, 1 h
[29] = test system: Escherichia coli; test: Induction of cell membrane disruption in Escherichia coli ATCC 25922 assessed as seperation of cytoplasmic membrane from outer membrane at 2 times MIC after 60 mins by transmission electron microscopy; assay type: organism-based
[30] = test system: Escherichia coli; test: Bactericidal activity against Escherichia coli ATCC 25922 assessed as reduction in bacterial growth at 4 times MIC after 30 mins by time kill assay relative to control; assay type: functional
[31] = test system: Staphylococcus epidermidis; test: Antibacterial activity against Staphylococcus epidermidis ATCC 12228 incubated for 18 to 24 hrs by broth microdilution method; assay type: functional
[32] = test system: Escherichia coli; test: Antibacterial activity against Escherichia coli ATCC 25922 in presence of MgCl2 by broth microdilution method; assay type: functional
[33] = Drug localization in Escherichia coli ATCC 25922 at 2 times MIC incubated for 1 hr using FITC-labelled peptides by propidium iodide-staining based super resolution fluorescent microscopy; assay type: ADME
[34] = test system: Salmonella typhimurium; test: Antibacterial activity against Salmonella enterica serovar typhimurium C77-31 incubated for 18 to 24 hrs by broth microdilution method; assay type: functional, Salmonella enterica subsp. enterica serovar Typhimurium
[35] = test system: Staphylococcus aureus; test: Antibacterial activity against Staphylococcus aureus ATCC 29213 in presence of ZnCl2 by broth microdilution method; assay type: functional
[36] = test system: Pseudomonas aeruginosa; test: Antibacterial activity against Pseudomonas aeruginosa PAO1 at sub-MIC treated over 35 serial passages by resistant development assay; assay type: functional, organism-based
[37] = Drug localization in Escherichia coli ATCC 25922 at 1 to 2 times MIC incubated for 1 hr using FITC-labelled peptides by propidium iodide-staining based regular fluorescent microscopy; assay type: ADME
[38] = test system: Escherichia coli; test: Antibacterial activity against Escherichia coli ATCC 25922 in presence of H202 by broth microdilution method; assay type: functional
[39] = test system: Escherichia coli; test: Antibacterial activity against Escherichia coli ATCC 25922 incubated for 2 hrs in presence of sodium phosphate buffer at pH 12 by broth microdilution method; assay type: functional; details: ATCC 25922, 2 h

CC(C)C[C@H](NC(=O)[C@H](CCCNC(=N)N)NC(=O)[C@H](Cc1c[nH]c2ccccc12)NC(=O)[C@H](CCCNC(=N)N)NC(=O)[C@@H](NC(=O)[C@H](CCCCN)NC(=O)[C@H](Cc1c[nH]c2ccccc12)NC(=O)[C@H](CCCNC(=N)N)NC(=O)[C@H](CC(C)C)NC(=O)[C@H](CCCNC(=N)N)NC(=O)[C@@H](N)Cc1c[nH]c2ccccc12)[C@@H](C)O)C(=O)N[C@@H](CCCCN)C(N)=O (H-WRLRWKTRWRLK-NH2)
90%: Activity [12]
4 µM: MIC [1] | MIC [3] | MIC [7] | MIC [8] | MIC [11] | MIC [16] | MIC [21] | MIC [24] | MIC [27] | MIC [31] | MIC [35]
2 µM: MIC [4] | MIC [9] | MIC [10] | MIC [17] | MIC [28] | MIC [32] | MIC [34] | MIC [38] | MIC [39]
1: log(activity) [18] | log(activity) [30]
8 µM: MIC [5] | MIC [15]
Active: Drug uptake [33] | Drug uptake [37]
91.7%: Activity [22]
> 128 µM: MHC [26]
active: Activity [2] | Activity [13] Dose-dependent effect | Activity [14] | Activity [19] | Activity [20] | Activity [23] | Activity [25] | Activity [29] | Activity [36]
inactive: Activity [6]
